According to patent publication US10905687B2, “Substituted piperazines as ROR-gamma modulators” (ESCALIER BIOSCIENCES B.V., priority 2016, dated 2021):
Where a name gives a salt, the structure may show the parent alone.

Assays:
RORγt = RORγt (Homo sapiens (Human), UniProt P51449); test: Gal4 ligand binding assay (RORγt Gal fusion assay); format: cell-based; conditions: RORγt inverse agonists in RORγt Gal fusion assay
Description: Human RORγ ligand binding assay was performed in 96-well format. The N-terminal DNA binding domains (DBD) of the native RORγ and RORγt receptors have been substituted with that of the yeast GAL4-DBD and RORγ is expressed constitutively in the cell line. Both agonist and inverse agonist activity can be detected. 10 mM compound stocks were diluted serially 1:3 with DMSO and further diluted with provided media to generate 10 titration points from 60 μM to 3 nM. These treatment conditions were added to the plates as 2× media in 100 μL volume. Each plate includes a positive control with 10 titration points as well as 6 negative control wells with vehicle only. Reporter cells were rapidly thawed and added to the plates in 100 μL volume. The plates were incubated for 24 hrs in a 37° C. humidified 5% CO2 incubator. Media was removed before the addition of room temperature Detection Substrate. After 5 minute incubation, the luminescence was quantified on a luminescence plate reader.

IMQ-induced psoriasis = conditions: topical pre-treatment daily for 5 days, 4 hours before IMQ; Compound A at 0.3, 1, 3%
Description: Compounds of Formula (I), (Ia), or (Ib) were tested in the imiquimod (IMQ) induced psoriasis model in mice to determine their in vivo efficacy as topical agents. Female Balb/c mice of age 8-10 weeks were allowed to acclimatize for at least seven days prior to experiment initiation. During this period, the mice were observed daily for clinical signs. Animals were randomly assigned to studies group on Day zero (DO) before anaesthetization and back hair was completely removed by using a depilatory cream. One group of animals served as a naïve control (untreated). […] The severity of psoriasis was monitored and graded daily using a modified human scoring system, the Psoriasis Area and Severity Index (PASI), which consists of measures for ear and skin erythema, scaling and thickness. At the end of the study period, 24 hours after the final dosing, all animals were humanely sacrificed, and blind histopathological scoring was performed by pathologist on H&E stained tissue sections of the ear and back.

Sequence of RORγt (P51449 269-508): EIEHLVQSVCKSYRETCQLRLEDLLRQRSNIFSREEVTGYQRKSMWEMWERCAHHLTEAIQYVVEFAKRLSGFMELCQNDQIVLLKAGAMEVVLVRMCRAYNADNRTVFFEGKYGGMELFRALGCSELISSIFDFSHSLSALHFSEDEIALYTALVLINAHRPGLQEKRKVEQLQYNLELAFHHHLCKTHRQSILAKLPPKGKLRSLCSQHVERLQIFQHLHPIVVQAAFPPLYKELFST

Compound | IC50 (RORγt) | other results
O=C(O)C1CN(Cc2ccncc2)CCN1Cc1ccc(-c2ccc(C(O)(C(F)(F)F)C(F)(F)F)cc2)cc1 (centres unmarked) [Compound 12, 1-((4′-(1,1,1,3,3,3-hexafluoro-2-hydroxypropan-2-yl)-[1,1′-biphenyl]-4-yl)methyl)-4-(pyridin-4-ylmethyl)piperazine-2-carboxylic acid] | 1 to 10 µM | –
O=C(O)CC1CN(Cc2ccncc2)CCN1Cc1ccc(-c2ccc(C(O)(C(F)(F)F)C(F)(F)F)cc2)cc1 (centres unmarked) [Compound 13, 2-(1-((4′-(1,1,1,3,3,3-hexafluoro-2-hydroxypropan-2-yl)-[1,1′-biphenyl]-4-yl)methyl)-4-(pyridin-4-ylmethyl)piperazin-2-yl)acetic acid] | 1 to 10 µM | –
C[C@H]1C[C@H]2[C@@H]3CCC4=CC(=O)C=C[C@]4(C)[C@@]3(F)[C@@H](O)C[C@]2(C)[C@@]1(O)C(=O)CCl [clobetasol] | – | ear and back skin thickness (IMQ-induced psoriasis): significantly decreased; histopathology scoring (IMQ-induced psoriasis): significantly decreased; psoriasis score (IMQ-induced psoriasis): significantly decreased

Second part, led by results:

IC50 (RORγt) | Compound | other results
1 to 10 µM | CC(C)NC(=O)C1CN(Cc2ccc(-c3ccc(C(O)(C(F)(F)F)C(F)(F)F)cc3)cc2)CCN1Cc1ccncc1 (centres unmarked) [Compound 28, 4-((4′-(1,1,1,3,3,3-hexafluoro-2-hydroxypropan-2-yl)-[1,1′-biphenyl]-4-yl)methyl)-N-isopropyl-1-(pyridin-4-ylmethyl)piperazine-2-car oxamide] | –
1 to 10 µM | NCCOC(=O)CC1CN(Cc2ccc(-c3ccc(C(O)(C(F)(F)F)C(F)(F)F)cc3)cc2)CCN1Cc1ccncc1 (centres unmarked) [Compound 33, 2-aminoethyl 2-(4-((4′-(1,1,1,3,3,3-hexafluoro-2-hydroxypropan-2-yl)-[1,1′-biphenyl]-4-yl)methyl)-1-(pyridin-4-ylmethyl)piperazin-2-yl)acetate hydrochloride] | –
1 to 10 µM | Cc1cc(CN2CCN(Cc3ccncc3)[C@@H](CC(=O)O)C2)ccc1-c1ccc(C(O)(C(F)(F)F)C(F)(F)F)cc1 [Compound 50, (S)-2-(4-((4′-(1,1,1,3,3,3-hexafluoro-2-hydroxypropan-2-yl)-2-methyl-[1,1′-biphenyl]-4-yl)methyl)-1-(pyridin-4-ylmethyl)piperazin-2-yl)acetic acid] | –
